Source: patent publication US8138168B1 (Takeda Pharmaceutical Company Limited, priority 2007, dated 2012)

Target: T1, Recombinant human renin (Homo sapiens, UniProt P00797)
T1 construct: isolate the active form (residues 67-406); made in house; host or cells: FreeStyle 293-F cells (transient expression of pcDNA3.1(+)/hREN)
T1 sequence (P00797 67-406): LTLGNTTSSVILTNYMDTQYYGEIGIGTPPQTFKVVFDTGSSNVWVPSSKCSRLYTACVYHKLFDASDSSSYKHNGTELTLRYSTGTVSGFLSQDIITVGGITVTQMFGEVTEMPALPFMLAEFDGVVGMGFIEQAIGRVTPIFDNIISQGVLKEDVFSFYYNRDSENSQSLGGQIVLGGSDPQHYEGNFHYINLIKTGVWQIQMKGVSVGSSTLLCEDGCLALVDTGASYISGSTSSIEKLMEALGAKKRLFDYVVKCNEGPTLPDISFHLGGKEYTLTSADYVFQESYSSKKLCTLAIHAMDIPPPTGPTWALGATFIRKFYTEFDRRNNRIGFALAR
Assay: In vitro enzymatic activity assay of renin inhibitors (fluorogenic peptide substrate)
Type: biochemical
Details: read-out: IC50 of Exemplified Compounds Against Renin
How it was run: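 Enzyme: recombinant human renin, 3 nM final, 10 min compound pre-incubation at 37 °C; buffer 50 mM Hepes pH 7.4 with 0.1 mg/mL BSA or extra 2% BSA; 5% DMSO.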

Row | IC50 [µM] | SMILES
1 | 0.1 to 1 | COCCCn1c([C@@H]2CCCN(C(=O)[C@@H]3CN(S(=O)(=O)c4ccccc4C(=O)OC)C[C@H]3N)C2)nc2ccccc21 [Compound 373, methyl 2-((3S,4R)-3-amino-4-((R)-3-(1-(3-methoxypropyl)-1H-benzo[d]imidazol-2-yl)piperidine-1-carbonyl)pyrrolidin-l-ylsulfonyl)benzoate]
2 | < 0.1 | COCCCn1c([C@@H]2CCCN(C(=O)C[C@H](N)Cc3ccc(-c4ccnc(O)c4)cc3)C2)nc2ccccc21 [Compound 437, (R)-3-amino-4-(4-(2-hydroxypyridin-4-yl)phenyl)-1-((R)-3-(1-(3-methoxypropyl)-1H-benzo[d]imidazol-2-yl)piperidin-1-yl)butan-1-one]
3 | < 0.1 | COCCCn1c([C@@H]2CCCN(C(=O)C[C@H](N)Cc3ccc(-c4ccc(NC(=O)N(C)C)cc4)cc3)C2)nc2ccccc21 [Compound 174, 3-(4′-((R)-2-amino-4-((R)-3-(1-(3-methoxypropyl)-1H-benzo[d]imidazol-2-yl)piperidin-1-yl)-4-oxobutyl)biphenyl-4-yl)-1,1-dimethylurea]
4 | < 0.1 | COCCCn1c([C@@H]2CCCN(C(=O)C[C@H](N)Cc3ccc(-c4ccc5c(c4)OC(F)(F)O5)cc3)C2)nc2c(F)cccc21 [Compound 454, (R)-3-amino-4-(4-(2,2-difluorobenzo[d][1,3]dioxol-5-yl)phenyl)-1-((R)-3-(4-fluoro-1-(3-methoxypropyl)-1H-benzo[d]imidazol-2-yl)piperidin-1-yl)butan-1-one]
5 | 0.1 to 1 | COCCCn1c([C@@H]2CCCN(C(=O)[C@@H]3CN(S(=O)(=O)c4cccc(Cl)c4Cl)C[C@H]3N)C2)nc2ccccc21 [Compound 363, ((3R,4S)-4-amino-1-(2,3-dichlorophenyisulfonyl)pyrrolidin-3-yl)((R)-3-(1-(3-methoxypropyl)-1H-benzo[d]imidazol-2-yl)piperidin-1-yl)methanone]
6 | > 1 | O=C(NCc1ccco1)N1CCCC(c2nc3ccccc3[nH]2)C1 (stereo not shown) [Compound 21, 3-(1H-benzo[d]imidazol-2-yl)-N-(furan-2-ylmethyl)piperidine-1-carboxamide]
7 | > 1 | COCCCn1c([C@@H]2CCCN(C(=O)C[C@H](N)c3cnccc3OC)C2)nc2ccccc21 [Compound 120, (S)-3-Amino-1((R)-3-(1-(3-methoxypropyl)-1H-benzo[d]imidazol-2-yl)piperidin-1-yl)-3-(4-methoxypyridin-3-yl)propan-1-one]
8 | > 1 | COCCCn1c([C@@H]2CCCN(C(=O)[C@@H]3CN(C(=O)C4CCCCC4)C[C@H]3N)C2)nc2ccccc21 [Compound 405, ((3R,4S)-4-amino-1-(cyclohexanecarbonyl)pyrrolidin-3-yl)((R)-3-(1-(3-methoxypropyl)-1H-benzo[d]imidazol-2-yl)piperidin-1-yl)methanone]
9 | > 1 | COCCCn1c([C@@H]2CCCN(C(=O)[C@H](Cc3ccccc3)C(N)Cc3ccc(Cl)cc3)C2)nc2ccccc21 (stereo partly drawn) [Compound 240, (R)-3-amino-2-benzyl-4-(4-chlorophenyl)-1-((R)-3-(1-(3-methoxypropyl)-1H-benzo[d]imidazol-2-yl)piperidin-1-yl)butan-1-one]
10 | 0.1 to 1 | CC(=O)NCCn1c([C@@H]2CCCN(C(=O)C[C@H](N)Cc3ccc(-c4ccc5c(c4)OC(F)(F)O5)cc3)C2)nc2ccccc21 [Compound 448, N-(2-(2-((R)-1-((R)-3-amino-4-(4-(2,2-difluorobenzo[d][1,3]dioxol-5-yl)phenyl)butanoyl)piperidin-3-yl)-1H-benzo[d]imidazol-1-yl)ethyl)acetamide]
11 | 0.1 to 1 | COCCCn1c([C@@H]2CCCN(C(=O)C[C@H](N)CNS(=O)(=O)c3cccc(Cl)c3)C2)nc2ccccc21 [Compound 300, N-((S)-2-amino-4-((R)-3-(1-(3-methoxypropyl)-1H-benzo[d]imidazol-2-yl)piperidin-1-yl)-4-oxobutyl)-3-chlorobenzenesulfonamide]
12 | 0.1 to 1 | COCCCn1c([C@@H]2CCCN(C(=O)C[C@H](N)CNC(=O)Nc3ccccc3OC(F)F)C2)nc2ccccc21 [Compound 274, 1-((S)-2-amino-4-((R)-3-(1-(3-methoxypropyl)-1H-benzo[d]imidazol-2-yl)piperidin-1-yl)-4-oxobutyl)-3-(2-(difluoromethoxy)phenyl)urea]
13 | < 0.1 | COCCCn1c([C@@H]2CCCN(C(=O)C[C@H](N)Cc3ccc(-c4ccc(N(C)C)nc4)cc3)C2)nc2ccccc21 [Compound 147, (R)-3-amino-4-(4-(6-(dimethylamino)pyridin-3-yl)phenyl)-1-((R)-3-(1-(3-methoxypropyl)-1H-benzo[d]imidazol-2-yl)piperidin-1-yl)butan-1-one]
14 | 0.1 to 1 | COCCCn1c([C@@H]2CCCN(C(=O)C[C@H](N)CNS(=O)(=O)c3c(Cl)cccc3Cl)C2)nc2ccccc21 [Compound 290, N-((S)-2-amino-4-((R)-3-(1-(3-methoxypropyl)-1H-benzo[d]imidazol-2-yl)piperidin-1-yl)-4-oxobutyl)-2,6-dichlorobenzenesulfonamide]
15 | > 1 | N[C@@H](CC(=O)N1CCCC(c2nc3ccccc3[nH]2)C1)Cc1csc2ccccc12 (stereo partly drawn) [Compound 29, (3R)-1-(3-(1H-benzo[d]imidazol-2-yl)piperidin-1-yl)-3-amino-4-(benzo[b]thiophen-3-yl)butan-1-one]
16 | > 1 | N[C@@H](CC(=O)N1CCCC(c2nc3ccccc3[nH]2)C1)Cc1ccc2ccccc2c1 (stereo partly drawn) [Compound 44, (3R)-1-(3-(1H-benzo[d]imidazol-2-yl)piperidin-1-yl)-3-amino-4-(naphthalen-2-yl)butan-1-one]
17 | > 1 | N[C@@H](Cc1ccccn1)C(=O)N1CCCC(c2nc3ccccc3[nH]2)C1 (stereo partly drawn) [Compound 62, (2S)-1-(3-(1H-benzo[d]imidazol-2-yl)piperidin-1-yl)-2-amino-3-(pyridin-2-yl)propan-1-one]
18 | 0.1 to 1 | COCCCn1c([C@@H]2CCCN(C(=O)[C@@H]3CN(S(=O)(=O)c4cc(C)c(Cl)cc4C)C[C@H]3N)C2)nc2ccccc21 [Compound 344, ((3R,4S)-4-amino-1-(4-chloro-2,5-dimethylphenylsulfonyl)pyrrolidin-3-yl)((R)-3-(1-(3-methoxypropyl)-1H-benzo[d]imidazol-2-yl)piperidin-1-yl)methanone]
19 | > 1 | COCCCn1c(C(C)(C)C)cnc1C1(O)CCCN(C(=O)C[C@H](N)Cc2ccc(-c3ccc(C(=O)OC)cc3)cc2)C1 (stereo partly drawn) [Compound 242, methyl 4′-((2R)-2-amino-4-(3-(5-tert-butyl-1-(3-methoxypropyl)-1H-imidazol-2-yl)-3-hydroxypiperidin-1-yl)-4-oxobutyl)biphenyl-4-carboxylate]
20 | < 0.1 | COCCCn1c([C@@H]2CCCN(C(=O)C[C@H](N)Cc3ccc4ccccc4c3)C2)nc2c(C)cccc21 [Compound 106, (R)-3-Amino-1-((R)-3-(1-(3-methoxypropyl)-4-methyl-1H-benzo[d]imidazol-2-yl)piperidin-1-yl)-4-(naphthalen-2-yl)butan-1-one]
21 | > 1 | COCCCn1c([C@@H]2CCCN(C(=O)[C@@H]3CN(C(=O)c4ccccc4Cl)C[C@H]3N)C2)nc2ccccc21 [Compound 398, ((3R,4S)-4-amino-1-(2-chlorobenzoyl)pyrrolidin-3-yl)((R)-3-(1-(3-methoxypropyl)-1H-benzo[d]imidazol-2-yl)piperidin-1-yl)methanone]
22 | > 1 | COc1cc(OC)cc([C@@H](N)CC(=O)N2CCCC(c3nc4ccccc4[nH]3)C2)c1 (stereo partly drawn) [Compound 31, (3S)-1-(3-(1H-benzo[d]imidazol-2-yl)piperidin-1-yl)-3-amino-3-(3,5-dimethoxyphenyl)propan-1-one]
23 | < 0.1 | COCCCn1c([C@@H]2CCCN(C(=O)C[C@H](N)Cc3ccc(-c4ccc(NC(=O)C(C)(C)O)cc4)cc3)C2)nc2ccccc21 [Compound 199, N-(4′-((R)-2-amino-4-((R)-3-(1-(3-methoxypropyl)-1H-benzo[d]imidazol-2-yl)piperidin-1-yl)-4-oxobutyl)biphenyl-4-yl)-2-hydroxy-2-methylpropanamide]
24 | < 0.1 | COCCCn1c([C@@H]2CCCN(C(=O)C[C@H](N)Cc3ccc(-c4cccc(OC)c4)cc3)C2)nc2ccccc21 [Compound 158, (R)-3-Amino-4-(3′-methoxybiphenyl-4-yl)-1-((R)-3-(1-(3-methoxypropyl)-1H-benzo[d]imidazol-2-yl)piperidin-1-yl)butan-1-one]
25 | 0.1 to 1 | COCCCn1c([C@@H]2CCCN(C(=O)C[C@H](N)Cc3ccc4ccccc4c3)C2)nc2cc([N+](=O)[O-])ccc21 [Compound 115, (R)-3-arni no-1-((R)-3-(1-(3-methoxypropyl)-5-nitro-1H-benzo[d]imidazol-2-yl)piperidin-1-yl)-4-(naphthalen-2-yl)butan-1-one]
26 | 0.1 to 1 | COCCCn1c([C@@H]2CCCN(C(=O)C[C@H](N)Cc3ccc(N4CCOCC4=O)cc3)C2)nc2ccccc21 [Compound 213]
27 | < 0.1 | COCCCn1c([C@@H]2CCCN(C(=O)C[C@H](N)Cc3ccc(-c4ccc5c(c4)OCC(=O)N5)cc3)C2)nc2c(F)cccc21 [Compound 443, 7-(4-((R)-2-amino-4-((R)-3-(4-fluoro-1-(3-methoxypropyl)-1H-benzo[d]imidazol-2-yl)piperidin-1-yl)-4-oxobutyl)phenyl)-2H-benzo[b][1,4]oxazin-3(4H)-one]

Row | SMILES | IC50 [µM]
28 | COCCCn1c([C@@H]2CCCN(C(=O)C[C@@H](N)COc3ccccc3C(=O)OC)C2)nc2ccccc21 [Compound 432, methyl 2-((R)-2-amino-4-((R)-3-(1-(3-methoxypropyl)-1H-benzo[d]imidazol-2-yl)piperidin-1-yl)-4-oxobutoxy)benzoate] | > 1
